# Laboratory results: PubChem BioAssay AID2060903 (Molecular Pharmacology Branch, DTP, NCI, 2025)
# Test system: 377384-186-R-J1-PDC complex spheroid viability
# Assay: Anticancer human tumor 377384-186-R-J1-PDC patient-derived pancreatic carcinoma cell line growth inhibition [RAS]
# Conditions: for IC50: curve of first compound; for viability, T/C: stronger effect = lower value
# In short: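 Tumour cells grown as complex spheroids with HUVEC endothelial cells and mesenchymal stem cells, treated with RAS pathway inhibitor combinations. Each agent spans half-log steps from near clinical Cmax, or 10 microM where Cmax is unknown.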
# 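Further: spheroids exposed to compounds for seven days before readout.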
compound,measurement,setting,value
Cc1nc(N2CCC3(CC2)COC(C)C3N)c(CO)nc1Sc1ccnc(N)c1Cl (configuration not stated) + CCn1c(-c2cc(N3CCN(C)CC3)cnc2C(C)OC)c2c3cc(ccc31)-c1csc(n1)CC(NC(=O)C1CC1C)C(=O)N1CCCC(N1)C(=O)OCC(C)(C)C2,IC50,second compound 0.000949 µM,< 31.6 nM
same,IC50,second compound 0.003 µM,< 31.6 nM
same,IC50,second compound 0.00949 µM,< 31.6 nM
same,IC50,second compound 0.03 µM,< 31.6 nM
same,IC50,second compound 0.0949 µM,< 31.6 nM
same,IC50,second compound 0.3 µM,< 31.6 nM
same,"viability, T/C","second compound 0.000949 µM, first compound 0.0316 µM",28.9%
same,"viability, T/C","second compound 0.000949 µM, first compound 0.1 µM",15.6%
same,"viability, T/C","second compound 0.000949 µM, first compound 0.316 µM",5.63%
same,"viability, T/C","second compound 0.000949 µM, first compound 1 µM",3.93%
same,"viability, T/C","second compound 0.000949 µM, first compound 3.16 µM",2.14%
same,"viability, T/C","second compound 0.000949 µM, first compound 10 µM",1.26%
same,"viability, T/C","second compound 0.003 µM, first compound 0.0316 µM",5.98%
same,"viability, T/C","second compound 0.003 µM, first compound 0.1 µM",3.1%
same,"viability, T/C","second compound 0.003 µM, first compound 0.316 µM",1.7%
same,"viability, T/C","second compound 0.003 µM, first compound 1 µM",1.39%
same,"viability, T/C","second compound 0.003 µM, first compound 3.16 µM",0.72%
same,"viability, T/C","second compound 0.003 µM, first compound 10 µM",0.71%
same,"viability, T/C","second compound 0.00949 µM, first compound 0.0316 µM",2.71%
same,"viability, T/C","second compound 0.00949 µM, first compound 0.1 µM",2.19%
same,"viability, T/C","second compound 0.00949 µM, first compound 0.316 µM",1.28%
same,"viability, T/C","second compound 0.00949 µM, first compound 1 µM",1.66%
same,"viability, T/C","second compound 0.00949 µM, first compound 3.16 µM",0.87%
same,"viability, T/C","second compound 0.00949 µM, first compound 10 µM",0.71%
same,"viability, T/C","second compound 0.03 µM, first compound 0.0316 µM",2.03%
same,"viability, T/C","second compound 0.03 µM, first compound 0.1 µM",1.9%
same,"viability, T/C","second compound 0.03 µM, first compound 0.316 µM",1.46%
same,"viability, T/C","second compound 0.03 µM, first compound 1 µM",1.09%
same,"viability, T/C","second compound 0.03 µM, first compound 3.16 µM",0.71%
same,"viability, T/C","second compound 0.03 µM, first compound 10 µM",0.28%
same,"viability, T/C","second compound 0.0949 µM, first compound 0.0316 µM",1.82%
same,"viability, T/C","second compound 0.0949 µM, first compound 0.1 µM",1.54%
same,"viability, T/C","second compound 0.0949 µM, first compound 0.316 µM",1.69%
same,"viability, T/C","second compound 0.0949 µM, first compound 1 µM",0.9%
same,"viability, T/C","second compound 0.0949 µM, first compound 3.16 µM",0.56%
same,"viability, T/C","second compound 0.0949 µM, first compound 10 µM",0.2%
same,"viability, T/C","second compound 0.3 µM, first compound 0.0316 µM",1.8%
same,"viability, T/C","second compound 0.3 µM, first compound 0.1 µM",1.68%
same,"viability, T/C","second compound 0.3 µM, first compound 0.316 µM",1.39%
same,"viability, T/C","second compound 0.3 µM, first compound 1 µM",1.08%
same,"viability, T/C","second compound 0.3 µM, first compound 3.16 µM",0.69%
same,"viability, T/C","second compound 0.3 µM, first compound 10 µM",0.21%
